Measured values taken from patent US7820649B2, “Quinazolinone and isoquinolinone acetamide derivatives” (N.V. Organon, priority 2006, dated 2010).

Tests used:
[1] = biological target: T1, human V3 receptor (Homo sapiens, UniProt P47901); assay: [3H]AVP binding to CHO cells stably expressing the human V3 receptor; conditions: [3H]AVP 2.5x10^-9 mol/L
T1 construct: expressed in transfected cells
T1 sequence (P47901 1-424): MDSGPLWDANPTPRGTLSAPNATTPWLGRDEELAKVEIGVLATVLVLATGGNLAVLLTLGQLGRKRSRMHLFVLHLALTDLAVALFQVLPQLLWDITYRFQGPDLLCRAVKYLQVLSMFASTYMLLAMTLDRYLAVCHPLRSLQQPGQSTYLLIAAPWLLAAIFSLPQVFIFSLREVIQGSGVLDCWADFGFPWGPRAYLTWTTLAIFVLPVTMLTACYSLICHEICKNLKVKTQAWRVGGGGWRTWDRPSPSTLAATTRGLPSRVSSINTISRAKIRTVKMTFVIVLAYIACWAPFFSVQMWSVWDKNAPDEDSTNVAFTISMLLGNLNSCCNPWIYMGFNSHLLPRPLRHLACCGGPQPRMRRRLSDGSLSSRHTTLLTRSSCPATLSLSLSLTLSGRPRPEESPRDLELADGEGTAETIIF
Description: Chinese Hamster Ovary (CHO) cells stably expressing the human V3 receptor were incubated to equilibrium with the test compound (at a final assay concentration of 10^−10 mol.L^−1 to 10^−5 mol.L^−1) and [^3H]AVP (at a final assay concentration of 2.5×10^−9 mol.L^−1). […] After washing with ice-cold phosphate buffered saline (PBS), scintillation fluid was added and the plates counted on a Topcount NXT apparatus.
A sigmoidal dose response curve (non-linear regression, variable slope) was plotted as concentration of test compound (mol.L^−1) against percentage specific binding of [^3H]AVP and a Ki value was calculated. Each determination was carried out in triplicate and repeated on at least 3 separate occasions

[2] = biological target: T2, V3 receptor (Rattus norvegicus, UniProt P48974); assay: Block of AVP-induced ACTH release from isolated rat anterior pituitary corticotrophs; type: cell-based; conditions: ACTH release after 3x10^-9 mol/L AVP for 120 minutes, ELISA; read-out: V3 receptor antagonism in isolated rat anterior pituitary cells
T2 construct: Anterior pituitary corticotrophs were prepared from adult female Sprague-Dawley rats; endogenous in cells; host or cells: primary anterior pituitary corticotrophs from adult female Sprague-Dawley rats
T2 sequence (P48974 1-425): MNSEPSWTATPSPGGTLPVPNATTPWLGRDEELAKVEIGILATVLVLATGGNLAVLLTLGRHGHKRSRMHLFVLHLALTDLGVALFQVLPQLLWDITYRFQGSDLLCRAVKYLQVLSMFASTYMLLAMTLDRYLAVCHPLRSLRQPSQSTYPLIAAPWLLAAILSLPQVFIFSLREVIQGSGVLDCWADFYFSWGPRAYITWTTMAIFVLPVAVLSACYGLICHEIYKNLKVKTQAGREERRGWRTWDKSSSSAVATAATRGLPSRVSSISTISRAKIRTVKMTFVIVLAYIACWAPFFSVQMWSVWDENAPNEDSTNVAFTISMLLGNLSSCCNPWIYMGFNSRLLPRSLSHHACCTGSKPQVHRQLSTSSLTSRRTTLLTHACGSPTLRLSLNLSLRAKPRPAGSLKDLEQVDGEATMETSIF
Description: The ability of compounds of the invention to act as V3 antagonists in a physiologically relevant system was determined by measuring their ability to block the release of adrenocorticotropic hormone (ACTH) from anterior pituitary corticotrophs in response to treatment with arginine vasopressin (AVP).
Anterior pituitary corticotrophs were prepared from adult female Sprague-Dawley rats and seeded into 48 well plates. The cells were cultured for 4 days prior to exposure to compound. Test compounds were prepared at […] in 100% DMSO. Cells were exposed to a dose response of test compounds for 20 minutes (10^−8 mol.L^−1-10^−5 mol.L^−1). The final concentration of DMSO in the assay was kept constant at 0.3%. The cells were then exposed to 3×10^−9 mol.L^−1 AVP for 120 minutes. Supernatants were harvested and stored at −20° C. ACTH levels were subsequently measured by ELISA following the manufacturer's instructions (Immunodiagnostic systems, UK (Cat No. DX-SDX018)). Each treatment was carried out in quadruplicate and a mean value obtained for the amount of ACTH released. The degree of antagonism was then calculated as a percentage of the amount of ACTH released by agonist alone after adjustment for basal levels of ACTH. A pIC50 was calculated by fitting a Sigmoidal dose response (variable slope) curve with a non-linear (fit) to the data using the software package GraphPad prism. […]

| Compound | Ki [1] | IC50 [2] |
| --- | --- | --- |
| CC(C)NC(=O)Cn1c(-c2cccc(Cl)c2)nc2ccc(N3CCCNCC3)cc2c1=O [Example 1b, 2-[2-(3-Chlorophenyl)-4-oxo-6-perhydro-1,4-diazepin-1-yl-4H-quinazolin-3-yl]-N-isopropylacetamide] | < 0.01 µM | – |
| COc1cccc(-c2nc3ccc(N4CCNCC4)cc3c(=O)n2CC(=O)NC(C)C)c1 [Example 2b, N-Isopropyl-2-[2-(3-methoxyphenyl)-4-oxo-6-piperazin-1-yl-4H-quinazolin-3-yl]acetamide] | 0.01 to 0.1 µM | – |
| COc1cccc(-c2nc3ccc(N4CCCC(CN(C)C)C4)cc3c(=O)n2CC(=O)NC(C)C)c1 (centres unmarked) [Example 3c, 2-[6-(3-Dimethylaminomethyl-piperidin-1-yl)-2-(3-methoxyphenyl)-4-oxo-4H-quinazolin-3-yl]-N-isopropylacetamide] | 0.01 to 0.1 µM | – |
| COc1cccc(-c2nc3ccc(N4CCC[C@H](CN5CCCCC5)C4)cc3c(=O)n2CC(=O)NC(C)C)c1 [Example 3f, N-Isopropyl-2-[2-(3-methoxyphenyl)-4-oxo-6-((R)-3-piperidin-1-ylmethylpiperidin-1-yl)-4H-quinazolin-3-yl]acetamide] | < 0.01 µM | – |
| COc1cccc(-c2nc3ccc(N4CCCN(C(C)C)CC4)cc3c(=O)n2CC(=O)NC(C)C)c1 [Example 4b, N-Isopropyl-2-[6-(4-isopropylperhydro-1,4-diazepin-1-yl)-2-(3-methoxyphenyl)-4-oxo-4H-quinazolin-3-yl]acetamide] | – | 0.01 to 0.1 µM |
| COc1cccc(-c2nc3ccc(N4CCCN(CC(F)(F)F)CC4)cc3c(=O)n2CC(=O)NC(C)C)c1 [Example 4c, N-Isopropyl-2-{2-(3-methoxyphenyl)-4-oxo-6-[4-(2,2,2-trifluoroethyl)Perhydro-1,4-diazepin-1-yl]-4H-quinazolin-3-yl}acetamide] | 0.1 to 1 µM | – |
| COCCN1CCCN(c2ccc3nc(-c4cccc(OC)c4)n(CC(=O)NC(C)C)c(=O)c3c2)CC1 [Example 4d, N-Isopropyl-2-[6-[4-(2-methoxyethyl)perhydro-1,4-diazepin-1-yl]-2-(3-methoxyphenyl)-4-oxo-4H-quinazolin-3-yl]acetamide] | < 0.01 µM | – |
| CC(C)NC(=O)Cn1c(-c2ccc(F)c(Cl)c2)nc2ccc(N3CCCN(CC(C)(C)C)CC3)cc2c1=O [Example 5Ac, 2-{2-(3-Chloro-4-fluorophenyl)-6-[4-(2,2-dimethylpropyl)perhydro-1,4-diazepin-1-yl]-4-oxo-4H-quinazolin-3-yl}-N-isopropylacetamide] | < 0.01 µM | – |
| CC(C)NC(=O)Cn1c(-c2ccc(F)c(Cl)c2)nc2ccc(N3CCN(C)CC(C)(C)C3)cc2c1=O [Example 5s, 2-[2-(3-Chloro-4-fluorophenyl)-4-oxo-6-(4,6,6-trimethylperhydro-1,4-diazepin-1-yl)-4H-quinazolin-3-yl]-N-isopropylacetamide] | < 0.01 µM | – |
| CC(C)NC(=O)Cn1c(-c2cc(Cl)cc(OC(F)(F)F)c2)nc2ccc(N3CCCN(C(C)C)CC3)cc2c1=O [Example 6w, 2-[2-(3-Chloro-5-trifluoromethoxyphenyl)-6-(4-isopropylperhydro-1,4-diazepin-1-yl)-4-oxo-4H-quinazolin-3-yl]-N-isopropylacetamide] | < 0.01 µM | – |
| CC(C)(C)NC(=O)Cn1c(C2CCCC2)nc2ccc(N3CCCNCC3)cc2c1=O [Example 7a] | 0.01 to 0.1 µM | – |
| COCC(C)NC(=O)Cn1c(-c2ccc(F)c(OC)c2)nc2ccc(N3CCN4CCC3CC4)cc2c1=O (centres unmarked) [Example 9Ah, 2-[6-(1,4-Diazabicyclo[3.2.2]non-4-yl)-2-(4-fluoro-3-methoxyphenyl)-4-oxo-4H-quinazolin-3-yl]-N-(2-methoxy-1-methylethyl)acetamide] | 0.01 to 0.1 µM | – |
| CCN1CCCN(c2ccc3nc(-c4ccc(F)c(OC)c4)n(CC(=O)NC(C)(C)C(F)(F)F)c(=O)c3c2)CC1 [Example 9h, 2-[6-(4-Ethylperhydro-1,4-diazepin-1-yl)-2-(4-fluoro-3-methoxyphenyl)-4-oxo-4H-quinazolin-3-yl]-N-(2,212-trifluoro-1,1-dimethylethyl)acetamide] | < 0.01 µM | – |
| CC(C)N1CCCN(c2ccc3nc(-c4cccc(Cl)c4)n(CC(=O)N(C)C(C)C)c(=O)c3c2)CC1 [Example 9u, 2-[2-(3-Chlorophenyl)-6-(4-isopropylperhydro-1,4-diazepin-1-yl)-4-oxo-4H-quinazolin-3-yl]-N-isopropyl-N-methylacetamide] | 0.01 to 0.1 µM | – |
